Counter-ions that a name gives are not always drawn.
What follows are molecules tested against T1, Full-length USP19 (Homo sapiens, UniProt O94966) (assay: USP19 fluorescence polarisation (FP) assay, Ubiquitin-Lys-TAMRA substrate). Conditions: average of at least two duplicate experiments.
T1 construct: Full-length USP19 was purchased from Boston Biochem (E-576); purchased Boston Biochem E-576
T1 sequence (O94966 1-1318): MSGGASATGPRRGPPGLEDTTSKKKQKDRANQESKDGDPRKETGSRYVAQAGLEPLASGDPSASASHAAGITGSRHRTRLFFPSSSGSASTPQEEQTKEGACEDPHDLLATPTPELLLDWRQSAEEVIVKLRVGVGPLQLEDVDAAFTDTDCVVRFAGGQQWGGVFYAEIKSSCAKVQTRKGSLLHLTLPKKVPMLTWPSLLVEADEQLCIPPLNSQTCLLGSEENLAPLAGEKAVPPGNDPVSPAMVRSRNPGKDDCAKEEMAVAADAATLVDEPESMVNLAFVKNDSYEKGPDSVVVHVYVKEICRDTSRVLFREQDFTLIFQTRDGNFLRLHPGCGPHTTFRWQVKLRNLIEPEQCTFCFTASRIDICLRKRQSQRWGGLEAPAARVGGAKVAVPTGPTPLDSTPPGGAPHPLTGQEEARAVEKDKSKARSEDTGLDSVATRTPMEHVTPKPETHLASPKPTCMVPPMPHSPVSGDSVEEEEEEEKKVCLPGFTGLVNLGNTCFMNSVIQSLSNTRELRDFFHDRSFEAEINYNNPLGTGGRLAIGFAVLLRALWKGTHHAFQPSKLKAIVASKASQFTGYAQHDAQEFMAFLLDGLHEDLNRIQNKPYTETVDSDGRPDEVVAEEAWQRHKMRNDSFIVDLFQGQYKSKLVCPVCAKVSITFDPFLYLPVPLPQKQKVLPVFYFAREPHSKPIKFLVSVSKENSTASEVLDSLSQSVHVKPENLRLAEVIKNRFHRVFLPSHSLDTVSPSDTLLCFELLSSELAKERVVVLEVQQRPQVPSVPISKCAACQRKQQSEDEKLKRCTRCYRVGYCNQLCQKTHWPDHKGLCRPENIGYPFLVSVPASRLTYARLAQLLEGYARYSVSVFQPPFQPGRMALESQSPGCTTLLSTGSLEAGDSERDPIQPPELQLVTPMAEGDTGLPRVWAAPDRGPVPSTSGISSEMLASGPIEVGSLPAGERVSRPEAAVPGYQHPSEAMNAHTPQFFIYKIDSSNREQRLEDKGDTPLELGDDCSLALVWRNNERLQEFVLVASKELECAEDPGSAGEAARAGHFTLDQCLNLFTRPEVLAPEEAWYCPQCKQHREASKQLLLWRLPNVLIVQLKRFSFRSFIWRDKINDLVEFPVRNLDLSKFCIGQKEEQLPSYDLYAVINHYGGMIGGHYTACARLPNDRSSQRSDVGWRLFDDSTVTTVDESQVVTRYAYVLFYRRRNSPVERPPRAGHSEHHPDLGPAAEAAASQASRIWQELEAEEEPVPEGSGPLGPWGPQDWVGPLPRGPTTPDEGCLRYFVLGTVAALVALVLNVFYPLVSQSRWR
Assay type: biochemical
Procedure, shortened: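 Fluorescence polarisation (excitation 530 nm, parallel and perpendicular emission at 575 nm) was recorded every 15 min for 90 min after adding the ubiquitin-Lys-TAMRA isopeptide (500 nM as dispensed). Beforehand, the full-length enzyme (2.5 nM as dispensed) sat 30 min at RT with compound diluted from 200 μM to 2 μM in HEPES pH 7.4 buffer with 150 mM NaCl, 5 mM DTT, 0.05% BSA and 0.05% CHAPS. Values normalised to uninhibited wells gave IC50s by non-linear fitting, each the mean of two or more duplicate runs.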

Row | SMILES | IC50
1 | O=C(N1CCC(Cn2cnc(-c3ccccc3)cc2=O)C2(CCCC2)C1)N1CCC[C@H]1c1ccccc1 (stereo partly drawn) [Example 8, 6-Phenyl-3-((7-((S)-2-phenylpyrrolidine-1-carbonyl)-7-azaspiro[4.5]decan-10-yl)methyl)pyrimidin-4(3H)-one] | 100 to 1000 nM
2 | N[C@@H]1CCN(C(=O)N2CCC(Cn3cnc(-c4ccccc4)cc3=O)CC2)[C@H](c2ccccc2)C1 [Example 9, 3-((1-((2S,4R)-4-Amino-2-phenylpiperidine-1-carbonyl)piperidin-4-yl)methyl)-6-phenylpyrimidin-4(3H)-one] | 10 to 100 nM
3 | N[C@@H]1CCN(C(=O)N2CCC(Cn3ccncc3=O)C3(CCCC3)C2)[C@H](c2ccccc2)C1 (stereo partly drawn) [Example 31, 1-((7-((2S,4R)-4-Amino-2-phenylpiperidine-1-carbonyl)-7-azaspiro[4.5]decan-10-yl)methyl)pyrazin-2(1H)-one] | 10 to 100 nM
4 | CN[C@@H]1CCN(C(=O)N2CC[C@@H](Cn3cnc(-c4ccccc4C)cc3=O)C3(CCCC3)C2)[C@H](c2cc(F)ccc2F)C1 [Example 114, 3-(((R)-7-((2S,4R)-2-(2,5-Difluorophenyl)-4-(methylamino)piperidine-1-carbonyl)-7-azaspiro[4.5]decan-10-yl)methyl)-6-(o-tolyl)pyrimidin-4(3H)-one] | < 10 nM
5 | O=C(N1CC[C@@H](Cn2cnc(-c3ccccc3)cc2=O)C2(CCCC2)C1)N1CC[C@@H](NC2CC(F)(F)C2)C[C@H]1c1ccccc1 [Example 135, 3-(((R)-7-((2S,4R)-4-((3,3-Difluorocyclobutyl)amino)-2-phenylpiperidine-1-carbonyl)-7-azaspiro[4.5]decan-10-yl)methyl)-6-phenylpyrimidin-4(3H)-one] | < 10 nM
6 | C[C@H](CC(F)(F)F)C(=O)N1CCC(Cn2ccc(-c3ccccc3)cc2=O)C2(CCCC2)C1 (stereo partly drawn) [Example 5, 4-Phenyl-1-((7-((R)-4,4,4-trifluoro-2-methylbutanoyl)-7-azaspiro[4.5]decan-10-yl)methyl)pyridin-2(1H)-one] | 1000 to 20000 nM
7 | CN(C)[C@@H]1CCN(C(=O)N2CC[C@@H](Cn3cnc4ccc(F)cc4c3=O)C3(CCCC3)C2)[C@H](c2cc(F)cc(F)c2)C1 [Example 184, 3-(((R)-7-((2S,4R)-2-(3,5-Difluorophenyl)-4-(dimethylamino)piperidine-1-carbonyl)-7-azaspiro[4.5]decan-10-yl)methyl)-6-fluoroquinazolin-4(3H)-one hydrochloride] | 100 to 1000 nM
8 | N[C@H]1C[C@@H](c2ccccc2)N(C(=O)N2CC[C@@H](Cn3ccc(-c4ccccc4)cc3=O)C3(CCCC3)C2)C[C@H]1F (racemic) [Example 85, 1-(((R)-7-((2S,4S,5R)-4-Amino-5-fluoro-2-phenylpiperidine-1-carbonyl)-7-azaspiro[4.5]decan-10-yl)methyl)-4-phenylpyridin-2(1H)-one and 1-(((R)-7-((2S,4S,5S)-4-Amino-5-fluoro-2-phenylpiperidine-1-carbonyl)-7-azaspiro[4.5]decan-10-yl)methyl)-4-phenylpyridin-2(1H)-one] | < 10 nM
9 | Cc1ccn(CC2CCN(C(=O)N3CC[C@@H](N)C[C@H]3c3ccccc3)CC23CCCC3)c(=O)c1 (stereo partly drawn) [Example 39, 1-((7-((2S,4R)-4-Amino-2-phenylpiperidine-1-carbonyl)-7-azaspiro[4.5]decan-10-yl)methyl)-4-methylpyridin-2(1H)-one] | 10 to 100 nM
10 | CN[C@@H]1CCN(C(=O)N2CC[C@@H](Cn3cnc(-c4ccccc4F)cc3=O)C3(CCCC3)C2)[C@H](c2cc(F)ccc2F)C1 [Example 145, 3-(((R)-7-((2S,4R)-2-(2,5-Difluorophenyl)-4-(methylamino)piperidine-1-carbonyl)-7-azaspiro[4.5]decan-10-yl)methyl)-6-(2-fluorophenyl)pyrimidin-4(3H)-one] | < 10 nM
11 | O=C(N1CC[C@@H](Cn2cnc(-c3ccccc3)cc2=O)C2(CCCC2)C1)N1CC[C@@H](NCc2ccccn2)C[C@H]1c1ccccc1 [Example 144, 6-Phenyl-3-(((R)-7-((2S,4R)-2-phenyl-4-((pyridin-2-ylmethyl)amino)piperidine-1-carbonyl)-7-azaspiro[4.5]decan-10-yl)methyl)pyrimidin-4(3H)-one] | < 10 nM

From patent US20240327382A1 (ALMAC DISCOVERY LIMITED, priority 2021, published 2024)
